From US20260285849A1, “METHYLOPHIOPOGONONE A DERIVATIVE, AND PREPARATION AND USE THEREOF” (INSTITUTE OF MATERIA MEDICA, CHINESE ACADEMY OF MEDICAL …, priority 2022, published 2026) come the findings set out here.

Where two headings read alike, the source gives them in different places. Marks after values point to notes of the source that are not given here.

The subject of data set [1] is mice with isoproterenol (ISO)-induced ischemic heart disease. Description: ISO-induced ischemic heart disease mouse model: serum ANP and NT-proBNP (ELISA). It is filed as in vivo. The conditions noted are these: 20 mg/kg intragastric once a day 11 days, ISO 40 mg/kg s.c. 7 times. How it is done:
(§1) Male C57BL/6 mice were allowed to acclimate to the environment and then randomly divided into 9 groups, namely the blank control group, the ISO model group, the ISO+diltiazem 20 mg/kg positive control drug group, the ISO+Formula I (0.1, 0.5, 2 mg/kg) groups, and the ISO+Formula II (0.1, 0.5, 2 mg/kg) groups. Mice in the drug administration groups were intragastrically administered the corresponding doses of Formula I and Formula II compounds once a day at the same time. Mice in the positive drug diltiazem group were intragastrically administered the corresponding dose of diltiazem once a day. Mice in the blank control group and the model group were given the same amount of solvent (0.5% CMC-Na). The administration volume was 10 mL/kg, and the administration was continuous for 11 days.
(§2) From the 4th to the 10th day of drug administration, ISO modeling was carried out. The blank control group was subcutaneously injected with normal saline, and mice in the other groups were subcutaneously injected with ISO at a dose of 40 mg/kg (modeling was performed 2 hours after drug administration), for a total of 7 times.
Detection of Myocardial Hypertrophy/Heart Failure Biomarkers: After the drug administration ended, the animals' eyes were enucleated to collect blood. The blood was left to stand at room temperature for 2 hours, and then centrifuged at 3500 rpm for 20 minutes to separate the serum. The contents of serum ANP and NT-proBNP were determined according to the instructions of the ELISA kit.
(An ELISA detects its analyte on a solid surface through an enzyme-linked reagent.)

Data set [2] concerns H9C2 cardiomyocytes. Description: cells. The conditions noted are these: Rattus norvegicus, H9c2, read-out: Cell viability.
Method: (§3) H9C2 cardiomyocytes in the logarithmic growth phase were seeded into 96-well plates at a density of 7×10^4 cells/mL, with 100 μL per well.
(§4) After 24 hours of culture, the culture medium of the H/R and drug-treated groups was replaced with serum-free glucose-free DMEM medium (100 μL per well). The cells were then placed in an anaerobic incubator and cultured under hypoxic conditions in a 37° C. cell culture incubator. After 6 hours, the supernatant of the H/R and drug-treated groups was removed and replaced with high-glucose medium containing 10% fetal bovine serum (100 μL per well). Each drug-treated group received the corresponding concentration of the drug, while the H/R model group and the blank control group received an equal volume of DMSO.
(§5) After removing the supernatant, 100 μL of CCK solution (the volume of CCK accounted for 10% of the DMEM culture medium volume) was added to each well. The cells were cultured in the cell culture incubator for 1 hour, and the absorbance was measured at 450 nm using a microplate reader to calculate the cell viability. Cell viability was calculated as follows: Cell viability (%)=(Experimental well-Blank well)/(Control well-Blank well)×100%.
For data set [3], the system named is H9C2 cardiomyocytes. Particulars: for OD: 6 h hypoxia, 12 h reoxygenation, CCK 450 nm; for Cell viability: rat, h9c2 cells.
Method: as §3, §4, §5
The subject of data set [4] is Rat H9C2 cardiomyocytes. Put plainly: cells. Particulars: H9c2, 24 h, read-out: Cell viability.
Method: (§6) Rat H9C2 cardiomyocytes in the logarithmic growth phase were seeded at a density of 7×10^4 cells/mL into 96-well plates, with 100 μL per well. […] After 24 hours of culture, the drug treatment groups were respectively added with 50 μM Ang II and the corresponding concentration of the drug. The Ang II model group was added with 50 μM Ang II and an equal volume of DMSO, and the blank control group was added with an equal volume of DMSO. Then, the cells were cultured for another 24 hours. After removing the supernatant, 100 μL of MTT solution (0.5 mg/mL) was added to each well, and the plates were placed in an incubator for 4 hours. After removing the supernatant again, 150 μL of DMSO was added to each well, and the mixture was shaken and mixed evenly for 10 minutes. The absorbance was measured at 570 nm using a microplate reader to calculate the cell viability.
(§7) Cell viability (%)=[(As−Ab)/(Ac−Ab)]×100% • As: Experimental well (culture medium containing cells, MTT, Ang II); • Ac: Control well (culture medium containing cells, MTT, without Ang II); • Ab: Blank well (culture medium without cells, MTT, without Ang II).
The test system of data set [5] is mice with isoproterenol (ISO)-induced ischemic heart disease. Put plainly: ISO-induced ischemic heart disease mouse model: Ca2+ in myocardial tissue. In kind it is in vivo. Particulars: 20 mg/kg intragastric once a day 11 days. The protocol:
as §1, §2
Calcium ion detection in myocardial tissue: After the experiment ended, some myocardial tissue was taken to prepare a 10% myocardial tissue homogenate with ultrapure water. The homogenate was centrifuged at 1200 rpm for 20 minutes at 4° C. to separate the supernatant of the myocardial tissue homogenate. The calcium ion content was determined according to the kit instructions; protein quantification was performed using the BCA protein assay method.

For data set [6] the test system is unchanged. Description: ISO-induced ischemic heart disease mouse model: serum CK-MB (ELISA). It is filed as in vivo. The conditions noted are these: 20 mg/kg intragastric once a day 11 days. The protocol:
as §1, §2
Myocardial enzyme CK-MB detection: After the administration ended, blood was collected from the animals by enucleation. The blood was left to stand at room temperature for 2 hours, and then centrifuged at 3500 rpm for 20 minutes to separate the serum. The content of CK-MB in the serum was determined according to the instructions of the ELISA kit.

The subject of data set [7] is Rat H9C2 cardiomyocytes. Put plainly: cells. The conditions noted are these: H9c2, 24 h, read-out: Cell survival rate.
Method: (§8) Rat H9C2 cardiomyocytes in the logarithmic growth phase were seeded into 96-well plates at a density of 7×10^4 cells/mL, with 100 μL per well. […] After 24 hours of culture, the drug groups were treated with 800 μM ISO and the corresponding concentrations of drugs. The ISO model group received 800 μM ISO and an equal volume of DMSO, and the blank control group received an equal volume of DMSO. The cells were then cultured for another 24 hours. After removing the supernatant, 100 μL MTT solution (0.5 mg/mL) was added to each well and incubated in the cell culture incubator for 4 hours. After removing the supernatant, 150 μL DMSO was added to each well, mixed by shaking for 10 minutes, and the absorbance was measured at 570 nm using a microplate reader to calculate cell viability. Cell viability (%)=[(As−Ab)/(Ac−Ab)]×100%. As: Experimental well (medium with cells, MTT, ISO); Ac: Control well (medium with cells, MTT, without ISO); Ab: Blank well (medium without cells, MTT, without ISO).
Data set [8] deals with Rat H9C2 cardiomyocytes. The conditions noted are these: for OD: 10 μM, 50 μM Ang II 24 h, MTT 570 nm.
Method: as §6, §7
The subject of data set [9] is Rat H9C2 cardiomyocytes. Particulars: for OD: 800 μM ISO 24 h, MTT 570 nm; for Cell survival rate: rat, h9c2 cells, 24 h.
Method: as §8
In data set [10] the test system is mice with isoproterenol (ISO)-induced ischemic heart disease. Put plainly: ISO-induced ischemic heart disease mouse model: myocardial tissue pathology (H&E). In kind it is in vivo. Particulars: 20 mg/kg, H&E. How it is done:
as §1, §2
Pathological detection of myocardial tissue: After the experiment ended, the heart was washed with ice-cold physiological saline and dried with absorbent paper. It was then cut transversely into two halves. One-third of the part closer to the apex of the heart was fixed in a 4% paraformaldehyde solution. After dehydration with gradient ethanol and clearing with xylene, it was immersed in melted paraffin three times for embedding, 30 minutes each time. After embedding, continuous sections (about 4 μm thick) were made. Routine hematoxylin and eosin (H.E.) staining was performed. The pathological state of the myocardial tissue was observed under an optical microscope, photographed, and analyzed.
• −: No abnormalities were observed. • +: No myocardial tissue damage was seen. There was local hypertrophy of cardiomyocytes in the interventricular septum and papillary muscles, local edema and degeneration of cardiomyocytes, widening of the local muscle space in the lesion area, and mild non-specific inflammation in the interstitium. • ++: No obvious myocardial tissue damage (cardiomyocyte necrosis) was observed. There was local hypertrophy of cardiomyocytes in the interventricular septum and papillary muscles, local edema and degeneration of cardiomyocytes. Myofibril dissolution (disappearance of cross-striations) could be seen in local areas. The lesions were relatively limited and distributed in small foci. Non-specific inflammation was visible in the interstitium, and local fibrous tissue hyperplasia in the interstitium was noted. • +++: There was obvious hypertrophy of cardiomyocytes in the interventricular septum and papillary muscles, local edema and degeneration of cardiomyocytes. […] The lesion was limited to the subendocardium of the local interventricular septum (or papillary muscle), with a limited and small affected area. Non-specific inflammation was visible in the interstitium of the lesion area, and local fibrous tissue hyperplasia in the interstitium was noted. • ++++: The hypertrophy of cardiomyocytes in the interventricular septum and papillary muscles is remarkable. Locally, there is edema and degeneration of cardiomyocytes; there is obvious damage (necrosis of cardiomyocytes) in the myocardial tissue of the local interventricular septum and papillary muscles. The lesions are distributed in foci (or small patches), and the affected area is relatively large. […] Locally, there is edema and degeneration of cardiomyocytes; the damage (necrosis of cardiomyocytes) of the myocardial tissue of the local interventricular septum and papillary muscles is severe. The damage (necrosis) lesions are distributed in patches and are connected to each other. Transmural myocardial tissue damage of the interventricular septum and papillary muscles can be seen locally.

The subject of data set [11] is H9C2 cardiomyocytes. Description: Angiotensin II (Ang II)-induced cardiomyocyte hypertrophy model, crystal violet, cell surface area. It is filed as cell-based, rat. Particulars: 10 μM; 40 μM Ang II 24 h; mean of 5 views. How it is done: Adjust the H9C2 cardiomyocytes in the logarithmic growth phase to a density of 1.2×10^5 cells/well and inoculate them into six-well plates. […] After culturing for 24 hours, the drug administration groups are added with 40 μM Ang II and the corresponding concentrations of drugs. The Ang II+diltiazem 10 μM group is added with 40 μM Ang II and 10 μM diltiazem. The Ang II model group is added with 40 μM Ang II and an equal volume of DMSO. The blank control group is added with an equal volume of DMSO. Then, continue culturing for 24 hours. Discard the culture medium, wash the cells 3 times with PBS. Add 1 mL of methanol to each well and fix the cells at −20° C. for 20 minutes, and then let them return to room temperature. After discarding the methanol, add 1 mL of 0.5% crystal violet staining solution to each well and stain for 10 minutes. Wash the cells with clean water and take pictures under an inverted microscope. Randomly select fields of view for photographing. Use Image J software to measure the sum of the surface areas of all cardiomyocytes in the field of view and count the number of cells in the field of view at the same time to obtain the surface area of each cardiomyocyte. The surface area of a single cardiomyocyte=the sum of the surface areas of all cardiomyocytes in the field of view/the number of cardiomyocytes in the field of view.

Turning to `COc1ccc([C@@H]2Sc3ccccc3N(CCN(C)C)C(=O)[C@@H]2OC(C)=O)cc1` [Diltiazem, reference compound], in data set [1], the ANP is on record as 361.59 ± 46.95^ pg/mL and the NT-proBNP is 43.12 ± 2.93 pg/mL. Moreover, in the data set on H9C2 cardiomyocytes [2], the viability at 10 µM was 50.2%. In the data set with H9C2 cardiomyocytes [3] (10 μM), this compound had an OD of 0.522 ± 0.061. Also, the viability at 10 µM with Rat H9C2 cardiomyocytes [4] turned out to be 79.7%. The “Ca^2+” value in [5] was 0.057 ± 0.011 mmol/gprot. The same compound returned a CK-MB in data set [6] of 17.98 ± 2.88 ng/mL. Moreover, in the data set on Rat H9C2 cardiomyocytes [7], the viability at 10 µM was 63.9%. Further, the OD in the data set with Rat H9C2 cardiomyocytes [8] amounted to 0.857 ± 0.042. In the data set with Rat H9C2 cardiomyocytes [9] (10 μM), this compound gave an OD of 0.773 ± 0.029. Also, in data set [10], the “The number of animals with lesion degree +” value amounted to 3, the “The number of animals with lesion degree ++” value is on record as 1, the “The number of animals with lesion degree +++” value was determined as 4 and the “The number of animals with lesion degree ++++” value worked out at 0. In [10], the “The number of animals with lesion degree +++++” value came out at 0, the “The number of animals with lesion degree −” value was 2 and the “average score of myocardial tissue lesion degree” value worked out at 1.70 ± 1.25. For the same compound, the Myocardial surface area in the data set with H9C2 cardiomyocytes [11] is 392.02 ± 19.37^### μm^2.
`Cc1c(O)c(C)c2occ(Cc3ccc4c(c3)OCO4)c(=O)c2c1O` [methyl ophiopogonone A, reference compound]: the OD in the data set with H9C2 cardiomyocytes [3] (1 μM) is listed as 0.540 ± 0.034; in the data set on H9C2 cardiomyocytes [3] (5 μM), 0.501 ± 0.042; with H9C2 cardiomyocytes [3] (10 μM), 0.581 ± 0.054; with Rat H9C2 cardiomyocytes [8], 0.833 ± 0.041; in the data set on Rat H9C2 cardiomyocytes [9] (1 μM), 0.781 ± 0.029; in the data set with Rat H9C2 cardiomyocytes [9] (5 μM) it was 0.801 ± 0.045. For the same compound, the OD with Rat H9C2 cardiomyocytes [9] (10 μM) was 0.724 ± 0.024^(p = 0.09). Also, the Cell viability is 51.93% in the data set on H9C2 cardiomyocytes [3] (1 µM); 48.17% in the data set on H9C2 cardiomyocytes [3] (5 µM); 55.82% with H9C2 cardiomyocytes [3] (10 µM); 77.40% in the data set on Rat H9C2 cardiomyocytes [8] (rat, h9c2 cells, 24 h, 10 µM). Moreover, the Cell survival rate in the data set with Rat H9C2 cardiomyocytes [9] (1 µM) came to 64.63%; in the data set on Rat H9C2 cardiomyocytes [9] (5 µM) it was 66.28%; in the data set with Rat H9C2 cardiomyocytes [9] (10 µM), 59.89%.
Turning to `Cc1c(O)cc2occ(Cc3ccc4c(c3)OCO4)c(=O)c2c1O` [Formula III], the viability at 0.1 µM with H9C2 cardiomyocytes [2] was determined as 53.1%. Besides, in the data set with H9C2 cardiomyocytes [2], the viability at 0.3 µM came to 48.1%. Besides, the results for the viability at 1 µM in the data set on H9C2 cardiomyocytes [2] and in the data set on Rat H9C2 cardiomyocytes [7] were 53.4% and 67.4%, respectively. In addition, in the data set with H9C2 cardiomyocytes [2], the viability at 3 µM was determined as 55.8%. For the same compound, the viability at 5 µM in the data set on H9C2 cardiomyocytes [2] was 52.2%; in the data set with Rat H9C2 cardiomyocytes [7], 65.5%. The viability at 10 µM with H9C2 cardiomyocytes [2] is 50.6%; in the data set on Rat H9C2 cardiomyocytes [7], 62.1%. Moreover, the OD in the data set on H9C2 cardiomyocytes [3] (0.1 μM) is 0.552 ± 0.067; with H9C2 cardiomyocytes [3] (0.3 μM), 0.500 ± 0.062; in the data set with H9C2 cardiomyocytes [3] (1 μM), 0.555 ± 0.053; with H9C2 cardiomyocytes [3] (3 μM), 0.580 ± 0.069; in the data set on H9C2 cardiomyocytes [3] (5 μM) it was 0.543 ± 0.037; with H9C2 cardiomyocytes [3] (10 μM), 0.527 ± 0.047. For the same compound, the OD in the data set on Rat H9C2 cardiomyocytes [9] (1 μM) worked out at 0.815 ± 0.041; in the data set with Rat H9C2 cardiomyocytes [9] (5 μM) it was 0.792 ± 0.061; in the data set with Rat H9C2 cardiomyocytes [9] (10 μM), 0.750 ± 0.065.
